Data on one molecule can be found in patent US20090055945A1, “Method for Producing Nuclear-Transplanted Egg” (priority 2005, published 2009).

The structures appear in SMILES notation.

Test [1] concerns nuclear transfer oocytes (nuclei from cumulus cells in enucleated oocytes). As to the kind of experiment: Expanded blastocyst formation of nuclear transfer oocytes (cumulus cell nuclei). Format: cell-based, mouse. How it is done:
Production of cloned mice including production of nuclear transfer embryos was carried out according to the method as described in Non-patent Document 5. Briefly, pregnant mare serum gonadotrophin (PMSG) was first administered to 8-weeks-old female B6D2F1 (C57BL/6 XDBA/2) mice (Japan SLC) for superovulation treatment. Human choriogonadotropin (hCG) was administered after 48 hours. Oocytes were collected after 16 hours. Nuclei were removed from the collected unfertilized oocytes in the presence of 5 μg/ml of cytochalasin B using a micromanipulator (enucleation).
Next, cell membranes of cumulus cells from a B6D2F1 mouse as donor somatic cells suspended in a 1.2% polyvinylpyrrolidone (PVP) solution were destroyed using an injection pipette, and the nuclei were injected into the enucleated oocytes using a micromanipulator (nuclear transfer). A piezo drive apparatus (Prime Tech) was used to generate piezo-pulses for penetration of zona pellucida or cell membranes which is required for injection of nuclei.
The thus obtained nuclear transfer oocytes were cultured in a CO2 incubator at 37° C. for 30 minutes to 1 hour. The oocytes were then transferred to an oocyte activation solution (Ca^2+-free CZB medium supplemented with 5 mM strontium chloride (SrCl2) and 5 μg/ml of cytochalasin B (Non-patent Document 10)) containing 0.5, 5, 50 or 500 nM trichostatin A (hereinafter referred to as TSA) to artificially activate the oocytes and initiate the development. Activation of oocytes was confirmed 6 hours after the initiation of activation using pronuclei formation as an index. Activated nuclear transfer oocytes were transferred to KSOM medium (Specialty Media) containing TSA at the same concentration, and cultured for further 14 hours (for 20 hours after the initiation of activation) in the medium. For a control, dimethyl sulfoxide (DMSO), which was used for dissolving TSA, was used in place of TSA to produce the same concentration.
Then, the nuclear transfer embryos at the 2-cell stage were cultured in KSOM medium without TSA until 96 hours after the initiation of activation, and development into expanded blastocysts was observed. The development into expanded blastocyst was confirmed by culturing for 96 hours after the initiation of activation and then observing under a microscope one in which the volume of embryo was increased to result in expansion of the blastocyst and thinning of zona pellucida among blastocysts having blastocoels. 80 or more embryos were examined in each of the experimental groups of the respective concentrations.
The ratio of the developed blastocysts to the number of nuclear transfer oocytes used (blastocyst formation rate (%)) was determined. The ratio of the developed expanded blastocysts to the number of oocytes that initiated cleavage (i.e., developed into the 2-cell stage) among the reconstructed nuclear transfer oocytes (blastocyst formation rate (%)) was determined.
Nuclear transfer oocytes were produced by injecting nuclei from cumulus cells into enucleated oocytes according to the method as described in Example 1, cultured in KSOM medium containing TSA at a concentration of 5 nM for various periods of time (for 0, 24, 48 or 72 hour(s) from the initiation of activation), and then cultured in KSOM medium without TSA until 96 hours after the initiation of activation. Then, development into expanded blastocysts was observed and the blastocyst formation rate was determined. […]

For test [2], the system named is cloned embryos derived from cumulus cells. Briefly: Methylation of DNA and histone H3 Lys9 in cloned embryos. Format: cell-based, mouse. The conditions noted are these: 500 nM TSA for 15 hours; FIG. 9. How it is done: Cloned embryos derived from cumulus cells were produced using oocytes from B6D2F1 mice produced according to the method as described in Example 1, and cultured in the presence or absence of 500 nM TSA for 15 hours (including the activation period). Then, the nuclear transfer embryos were fixed, and methylation of DNA (DNA metC) and methylation of histone H3 Lys9 (H3K9 trimet) were examined using antibodies against the respective antigens. Furthermore, DNA was stained with DAPI. 15 cloned embryos were used for each group. The results are shown in FIG. 9 along with the merged images (Merge).

Turning to `CC(/C=C/C(=O)NO)=C\[C@@H](C)C(=O)c1ccc(N(C)C)cc1` [TSA, trichostatin A], the “blastocyst development rate compared with the case without TSA” value in test [1] (TSA 5 nM for 24 or 48 hours from initiation of activation, FIG. 4) is reported as “increased”. For the same molecule, in test [1] (TSA 5 nM for 10 hours after initiation of activation, FIG. 5), the “blastocyst development rate among treatment periods” value is on record as “highest”. For the same molecule, the “increase in blastocyst development rate” value in test [1] (TSA 5 nM for 24 hours from initiation of activation) is reported as “about 4 fold”. In addition, the “development rate compared with the case without TSA” value in test [1] (TSA 5 nM for 72 hours from initiation of activation) was “reduced”. Also, the “blastocyst formation rate compared with the case without TSA” value in test [1] (TSA 5, 50 or 500 nM, 20 hours after initiation of activation, observed at 96 hours, FIG. 2) is “increased”. In addition, in test [2], the “methylation of DNA and histone H3 Lys9 in other chromosomal portions” value is listed as “reduction in methylation of both was observed”; the “methylation of DNA and histone H3 Lys9 in the pericentromeric region” value was “prominent reduction was not observed”.
